Laboratory results: the supplement of paper PMC11208160

experiment: recombinant UMI read abundance after kanamycin selection (control-corrected) (log10(CPM+1)); higher = more efficient recombination; extreme values may be limits of the assay; sequences stand for … in AGTGCAGAGAAAATCGGCCAGTTTTCTCTGCCTGCAGTCCGCATGCCGTGGGACCCCTTGGGTTCTAACCTGTTGCCTAGATTTATGCAGCGGACTGCCTTTCTCCCAAAGTGATAAACCGG…AGGTTGGTTTCACT; site = the 11-nt donor
Method: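 Pooled E. coli donor-specificity screen for the IS621 bridge recombinase. Each library member carries a reprogrammed 11-nt donor and a full-length LE bridge RNA expressed in cis from the natural promoter, with a paired donor-binding loop (8-nt LDG + 4-nt RDG) and a target-binding loop fixed to T5. It is co-electroporated with a T5 target plasmid; recombinase is induced with 0.07 mM IPTG and recombinants are selected on kanamycin. UMIs are counted as CPM, averaged over two biological replicates and corrected by the unselected control. Molecule = full bridge RNA written as DNA, built from the T5 scaffold: LDG = donor specificity nt 1-8, RDG = reverse complement of nt 8-11.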
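Note: IS621 bridge recombinase in Escherichia coli cells against a fixed T5 target plasmid.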

Sequence	recombinant UMI read abundance (log10)
AAAACACCATGGACCGGTTTTCCCGGTAATCCGTATTTGCG (site AAAACACCTCG)	0.012
AAAACCCCATGGACCGGTTTTCCCGGTAATCCGTATTTGGA (site AAAACCCCTTC)	0.00874
AAAACTACATGGACCGGTTTTCCCGGTAATCCGTATTTGCG (site AAAACTACTCG)	1.1
AAAAGAACATGGACCGGTTTTCCCGGTAATCCGTATTTGAA (site AAAAGAACTTT)	2.03
AAAAGACCATGGACCGGTTTTCCCGGTAATCCGTATTTGTA (site AAAAGACCTTA)	0
AAAAGCACATGGACCGGTTTTCCCGGTAATCCGTATTTGCA (site AAAAGCACTTG)	2.36
AAACATACATGGACCGGTTTTCCCGGTAATCCGTATTTGTG (site AAACATACTCA)	1.38
AAACCAGCATGGACCGGTTTTCCCGGTAATCCGTATTTGGC (site AAACCAGCTGC)	0
AAAGCTCCATGGACCGGTTTTCCCGGTAATCCGTATTTGCG (site AAAGCTCCTCG)	0.472
AAAGCTTCATGGACCGGTTTTCCCGGTAATCCGTATTTGGG (site AAAGCTTCTCC)	0.447
AAAGGGGCATGGACCGGTTTTCCCGGTAATCCGTATTTGGG (site AAAGGGGCTCC)	0
AAAGTAGCATGGACCGGTTTTCCCGGTAATCCGTATTTGGC (site AAAGTAGCTGC)	2.01
AAAGTCACATGGACCGGTTTTCCCGGTAATCCGTATTTGAC (site AAAGTCACTGT)	2.44
AAATATTCATGGACCGGTTTTCCCGGTAATCCGTATTTGGG (site AAATATTCTCC)	0.372
AAATCAGCATGGACCGGTTTTCCCGGTAATCCGTATTTGTT (site AAATCAGCTAA)	0.425
AAATCGTCATGGACCGGTTTTCCCGGTAATCCGTATTTGCT (site AAATCGTCTAG)	2.36
AACAGACCATGGACCGGTTTTCCCGGTAATCCGTATTTGCG (site AACAGACCTCG)	0
AACAGACCATGGACCGGTTTTCCCGGTAATCCGTATTTGTA (site AACAGACCTTA)	1.25
AACAGCCCATGGACCGGTTTTCCCGGTAATCCGTATTTGCA (site AACAGCCCTTG)	0.756
AACAGCGCATGGACCGGTTTTCCCGGTAATCCGTATTTGAC (site AACAGCGCTGT)	2
AACATGCCATGGACCGGTTTTCCCGGTAATCCGTATTTGCT (site AACATGCCTAG)	1.43
AACCAAACATGGACCGGTTTTCCCGGTAATCCGTATTTGAA (site AACCAAACTTT)	1.31
AACCCAACATGGACCGGTTTTCCCGGTAATCCGTATTTGAC (site AACCCAACTGT)	2.68
AACCGACCATGGACCGGTTTTCCCGGTAATCCGTATTTGAT (site AACCGACCTAT)	0.0205

Sequence	recombinant UMI read abundance (log10)
AACCGACCATGGACCGGTTTTCCCGGTAATCCGTATTTGAT (site AACCGCCCTAT)	0
AACCGACCATGGACCGGTTTTCCCGGTAATCCGTATTTGAT (site AACCGGCCTAT)	0.0183
AACCGACCATGGACCGGTTTTCCCGGTAATCCGTATTTGAT (site AACCGTCCTAT)	0.0119
AACCGTGCATGGACCGGTTTTCCCGGTAATCCGTATTTGTG (site AACCGTGCTCA)	0.0421
AACCTTCCATGGACCGGTTTTCCCGGTAATCCGTATTTGAT (site AACCATCCTAT)	0.00673
AACCTTCCATGGACCGGTTTTCCCGGTAATCCGTATTTGAT (site AACCCTCCTAT)	0.0165
AACCTTCCATGGACCGGTTTTCCCGGTAATCCGTATTTGAT (site AACCGTCCTAT)	0.0124
AACCTTCCATGGACCGGTTTTCCCGGTAATCCGTATTTGAT (site AACCTTCCTAT)	0
AACGATGCATGGACCGGTTTTCCCGGTAATCCGTATTTGAC (site AACGATGCTGT)	2.22
AACGCCGCATGGACCGGTTTTCCCGGTAATCCGTATTTGTC (site AACGCCGCTGA)	2.24
AACGGTCCATGGACCGGTTTTCCCGGTAATCCGTATTTGAT (site AACAGTCCTAT)	0.00739
AACGGTCCATGGACCGGTTTTCCCGGTAATCCGTATTTGAT (site AACCGTCCTAT)	0
AACGGTCCATGGACCGGTTTTCCCGGTAATCCGTATTTGAT (site AACGGTCCTAT)	0
AACGGTCCATGGACCGGTTTTCCCGGTAATCCGTATTTGAT (site AACTGTCCTAT)	0.145
AACGTAACATGGACCGGTTTTCCCGGTAATCCGTATTTGCT (site AAAGTAACTAG)	0.893
AACGTAACATGGACCGGTTTTCCCGGTAATCCGTATTTGCT (site AACGTAACTAG)	2.51
AACGTAACATGGACCGGTTTTCCCGGTAATCCGTATTTGCT (site AAGGTAACTAG)	0.524
AACGTAACATGGACCGGTTTTCCCGGTAATCCGTATTTGCT (site AATGTAACTAG)	1.49
AACGTATCATGGACCGGTTTTCCCGGTAATCCGTATTTGCA (site AACGTATCTTG)	2.73
AACGTATCATGGACCGGTTTTCCCGGTAATCCGTATTTGCA (site ACAGTATCTTG)	1.07
AACGTCTCATGGACCGGTTTTCCCGGTAATCCGTATTTGTC (site AACGTCTCTGA)	3.05
AACGTGTCATGGACCGGTTTTCCCGGTAATCCGTATTTGTT (site AACGTGTCTAA)	2.59
AACTAGACATGGACCGGTTTTCCCGGTAATCCGTATTTGAG (site AACTAGACTCT)	1.48
AACTATACATGGACCGGTTTTCCCGGTAATCCGTATTTGGT (site AACTATACTAC)	1.26

Sequence	recombinant UMI read abundance (log10)
AACTCATCATGGACCGGTTTTCCCGGTAATCCGTATTTGAA (site AACTCATCTTT)	1.19
AACTCGCCATGGACCGGTTTTCCCGGTAATCCGTATTTGCT (site AACTCGCCTAG)	1.56
AACTCGCCATGGACCGGTTTTCCCGGTAATCCGTATTTGTT (site AACTCGCCTAA)	0.0268
AACTGGTCATGGACCGGTTTTCCCGGTAATCCGTATTTGAC (site AACTGGTCTGT)	1.18
AAGAATTCATGGACCGGTTTTCCCGGTAATCCGTATTTGTA (site AAGAATTCTTA)	2.33
AAGACCGCATGGACCGGTTTTCCCGGTAATCCGTATTTGCC (site AAGACCGCTGG)	2.73
AAGATGCCATGGACCGGTTTTCCCGGTAATCCGTATTTGTG (site AAGATGCCTCA)	0.653
AAGATTCCATGGACCGGTTTTCCCGGTAATCCGTATTTGTA (site AAGATTCCTTA)	1.3
AAGCACGCATGGACCGGTTTTCCCGGTAATCCGTATTTGAG (site AAGCACGCTCA)	0.629
AAGCACGCATGGACCGGTTTTCCCGGTAATCCGTATTTGAG (site AAGCACGCTCC)	0.225
AAGCACGCATGGACCGGTTTTCCCGGTAATCCGTATTTGAG (site AAGCACGCTCG)	0.644
AAGCACGCATGGACCGGTTTTCCCGGTAATCCGTATTTGAG (site AAGCACGCTCT)	1.49
AAGCACGCATGGACCGGTTTTCCCGGTAATCCGTATTTGCG (site AAGCACGCTCA)	0.289
AAGCACGCATGGACCGGTTTTCCCGGTAATCCGTATTTGCG (site AAGCACGCTCC)	0.223
AAGCACGCATGGACCGGTTTTCCCGGTAATCCGTATTTGCG (site AAGCACGCTCG)	1.44
AAGCACGCATGGACCGGTTTTCCCGGTAATCCGTATTTGCG (site AAGCACGCTCT)	0.766
AAGCACGCATGGACCGGTTTTCCCGGTAATCCGTATTTGGC (site AAGCACGCTAC)	0.701
AAGCACGCATGGACCGGTTTTCCCGGTAATCCGTATTTGGC (site AAGCACGCTCC)	0.0935
AAGCACGCATGGACCGGTTTTCCCGGTAATCCGTATTTGGC (site AAGCACGCTGC)	2.71
AAGCACGCATGGACCGGTTTTCCCGGTAATCCGTATTTGGC (site AAGCACGCTTC)	0.476
AAGCACGCATGGACCGGTTTTCCCGGTAATCCGTATTTGGT (site AAGCACGCTAC)	1.48
AAGCACGCATGGACCGGTTTTCCCGGTAATCCGTATTTGGT (site AAGCACGCTCC)	0.315
AAGCACGCATGGACCGGTTTTCCCGGTAATCCGTATTTGGT (site AAGCACGCTGC)	1.24
AAGCACGCATGGACCGGTTTTCCCGGTAATCCGTATTTGGT (site AAGCACGCTTC)	0.427
